Data set [1] can be described thus: refractive index (Na D-line) (dimensionless). Particulars: 298.15 K; 101.33 kPa; Liquid; Standard Abbe refractometry.
The conditions of data set [2]: 298.15 K; 101.33 kPa; Liquid; Pycnometric method.

Each structure is given as a SMILES string. ± gives the expanded uncertainty stated by the source.

One may read the refractive index as a measure of how strongly the sample bends light. In general, mass density refers to mass per unit of volume.

Turning to `CN1CCCN(C)C1=O` [1,3-dimethyl-3,4,5,6-tetrahydro-2(1H)-pyrimidinone], the refractive index in data set [1] is recorded as 1.4878 ± 0.0007. Besides, in data set [2], the mass density worked out at 1060.06 ± 0.96 kg/m3.
